Reference: PubChem BioAssay (NCI)
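These data come from cells grown in 96-well plates and exposed to compound for 48 hours at five concentrations. TGI marks complete inhibition of growth.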

Legend:
Experiment in all cases: NCI-60 cell line screen, 48 h
HOP-92 NSCLC = test system: HOP-92 NSCLC
MALME-3M melanoma = test system: MALME-3M melanoma
HOP-62 NSCLC = test system: HOP-62 NSCLC
OVCAR-8 ovarian = test system: OVCAR-8 ovarian
HCT-15 colon = test system: HCT-15 colon
LOX IMVI melanoma = test system: LOX IMVI melanoma
COLO 205 colon = test system: COLO 205 colon
OVCAR-4 ovarian = test system: OVCAR-4 ovarian
UO-31 renal = test system: UO-31 renal
LXFL 529 NSCLC = test system: LXFL 529 NSCLC
NCI-H522 lung = test system: NCI-H522 lung
UACC-257 melanoma = test system: UACC-257 melanoma
CCRF-CEM leukemia = test system: CCRF-CEM leukemia
TK-10 renal = test system: TK-10 renal
NCI-H460 lung = test system: NCI-H460 lung
ACHN renal = test system: ACHN renal
SK-OV-3 ovarian = test system: SK-OV-3 ovarian
M14 melanoma = test system: M14 melanoma
SK-MEL-28 melanoma = test system: SK-MEL-28 melanoma
UACC-62 melanoma = test system: UACC-62 melanoma
SNB-78 CNS = test system: SNB-78 CNS
OVCAR-3 ovarian = test system: OVCAR-3 ovarian
HCC-2998 colon = test system: HCC-2998 colon
SF-268 CNS = test system: SF-268 CNS
786-0 renal = test system: 786-0 renal
OVCAR-5 ovarian = test system: OVCAR-5 ovarian
DLD-1 colon = test system: DLD-1 colon
HT29 colon = test system: HT29 colon
MOLT-4 leukemia = test system: MOLT-4 leukemia
RPMI-8226 leukemia = test system: RPMI-8226 leukemia
DMS 114 small cell lung = test system: DMS 114 small cell lung
IGROV1 ovarian = test system: IGROV1 ovarian
SNB-19 CNS = test system: SNB-19 CNS
U251 CNS = test system: U251 CNS
EKVX NSCLC = test system: EKVX NSCLC
SN12C renal = test system: SN12C renal
NCI-H23 lung = test system: NCI-H23 lung
RXF 393 renal = test system: RXF 393 renal
SNB-75 CNS = test system: SNB-75 CNS
HL-60(TB) leukemia = test system: HL-60(TB) leukemia
SK-MEL-2 melanoma = test system: SK-MEL-2 melanoma
SF-295 CNS = test system: SF-295 CNS
KM20L2 colon = test system: KM20L2 colon
HCT-116 colon = test system: HCT-116 colon
KM12 colon = test system: KM12 colon
K-562 leukemia = test system: K-562 leukemia
M19-MEL melanoma = test system: M19-MEL melanoma
DMS 273 small cell lung = test system: DMS 273 small cell lung
HOP-18 NSCLC = test system: HOP-18 NSCLC
SF-539 CNS = test system: SF-539 CNS
A498 renal = test system: A498 renal
CAKI-1 renal = test system: CAKI-1 renal
SK-MEL-5 melanoma = test system: SK-MEL-5 melanoma
A549 NSCLC = test system: A549 NSCLC
NCI-H226 lung = test system: NCI-H226 lung
SW-620 colon = test system: SW-620 colon
XF 498 CNS = test system: XF 498 CNS
T-47D breast = test system: T-47D breast
HS 578T breast = test system: HS 578T breast
BT-549 breast = test system: BT-549 breast
NCI/ADR-RES ovarian = test system: NCI/ADR-RES ovarian
SR leukemia = test system: SR leukemia
MDA-MB-435 = test system: MDA-MB-435
MCF7 breast = test system: MCF7 breast
MDA-MB-231 breast = test system: MDA-MB-231 breast
MDA-N = test system: MDA-N
DU-145 prostate = test system: DU-145 prostate
PC-3 prostate = test system: PC-3 prostate

Measured: TGI

Cc1cc2c(c(C(N)=O)c1C)-c1cc(Cl)cc(Cl)c1C2=O
> 100 µM: HOP-92 NSCLC | MALME-3M melanoma | HOP-62 NSCLC | OVCAR-8 ovarian | HCT-15 colon | LOX IMVI melanoma | COLO 205 colon | OVCAR-4 ovarian | UO-31 renal | LXFL 529 NSCLC | NCI-H522 lung | UACC-257 melanoma | CCRF-CEM leukemia | TK-10 renal | NCI-H460 lung | ACHN renal | SK-OV-3 ovarian | M14 melanoma | SK-MEL-28 melanoma | UACC-62 melanoma | SNB-78 CNS | OVCAR-3 ovarian | HCC-2998 colon | SF-268 CNS | 786-0 renal | OVCAR-5 ovarian | DLD-1 colon | HT29 colon | MOLT-4 leukemia | RPMI-8226 leukemia | DMS 114 small cell lung | IGROV1 ovarian | SNB-19 CNS | U251 CNS | EKVX NSCLC | SN12C renal | NCI-H23 lung | RXF 393 renal | HL-60(TB) leukemia | SK-MEL-2 melanoma | SF-295 CNS | KM20L2 colon | HCT-116 colon | KM12 colon | K-562 leukemia | M19-MEL melanoma | DMS 273 small cell lung | HOP-18 NSCLC | SF-539 CNS | A498 renal
45.6 µM: SNB-75 CNS

Cc1ccccc1C(=O)C1CCCCC1O (centres undefined)
> 100 µM: HOP-92 NSCLC | MALME-3M melanoma | HOP-62 NSCLC | HCT-15 colon | LOX IMVI melanoma | OVCAR-4 ovarian | UO-31 renal | LXFL 529 NSCLC | TK-10 renal | ACHN renal | SK-OV-3 ovarian | M14 melanoma | CAKI-1 renal | UACC-62 melanoma | SK-MEL-5 melanoma | SNB-78 CNS | OVCAR-3 ovarian | HCC-2998 colon | SF-268 CNS | A549 NSCLC | 786-0 renal | OVCAR-5 ovarian | MOLT-4 leukemia | DMS 114 small cell lung | IGROV1 ovarian | SNB-19 CNS | NCI-H226 lung | U251 CNS | EKVX NSCLC | SW-620 colon | SN12C renal | NCI-H23 lung | RXF 393 renal | SNB-75 CNS | HL-60(TB) leukemia | SK-MEL-2 melanoma | KM20L2 colon | HCT-116 colon | KM12 colon | K-562 leukemia

CCOC(=O)C1Nc2ccccc2[C@H]2OCC[C@@H]12 (some centres undefined)
> 100 µM: MALME-3M melanoma | HOP-62 NSCLC | OVCAR-8 ovarian | HCT-15 colon | LOX IMVI melanoma | COLO 205 colon | OVCAR-4 ovarian | NCI-H522 lung | UACC-257 melanoma | CCRF-CEM leukemia | TK-10 renal | NCI-H460 lung | ACHN renal | SK-OV-3 ovarian | M14 melanoma | SK-MEL-28 melanoma | CAKI-1 renal | UACC-62 melanoma | SK-MEL-5 melanoma | SNB-78 CNS | OVCAR-3 ovarian | HCC-2998 colon | SF-268 CNS | A549 NSCLC | 786-0 renal | OVCAR-5 ovarian | DLD-1 colon | HT29 colon | MOLT-4 leukemia | IGROV1 ovarian | SNB-19 CNS | NCI-H226 lung | U251 CNS | EKVX NSCLC | SW-620 colon | SN12C renal | NCI-H23 lung | RXF 393 renal | SNB-75 CNS | XF 498 CNS | HL-60(TB) leukemia | SK-MEL-2 melanoma | SF-295 CNS | KM20L2 colon | HCT-116 colon | KM12 colon | K-562 leukemia | M19-MEL melanoma | DMS 273 small cell lung | HOP-18 NSCLC | SF-539 CNS | A498 renal

Nc1nc(N)c(CCCCc2ccccc2)c(N)n1
> 100 µM: HOP-92 NSCLC | MALME-3M melanoma | HOP-62 NSCLC | OVCAR-8 ovarian | HCT-15 colon | LOX IMVI melanoma | COLO 205 colon | OVCAR-4 ovarian | UO-31 renal | LXFL 529 NSCLC | NCI-H522 lung | T-47D breast | UACC-257 melanoma | CCRF-CEM leukemia | TK-10 renal | NCI-H460 lung | ACHN renal | SK-OV-3 ovarian | M14 melanoma | SK-MEL-28 melanoma | CAKI-1 renal | UACC-62 melanoma | SK-MEL-5 melanoma | OVCAR-3 ovarian | HCC-2998 colon | SF-268 CNS | A549 NSCLC | 786-0 renal | OVCAR-5 ovarian | DLD-1 colon | HT29 colon | MOLT-4 leukemia | RPMI-8226 leukemia | HS 578T breast | DMS 114 small cell lung | IGROV1 ovarian | BT-549 breast | NCI/ADR-RES ovarian | SNB-19 CNS | SR leukemia | MDA-MB-435 | MCF7 breast | NCI-H226 lung | U251 CNS | MDA-MB-231 breast | EKVX NSCLC | SW-620 colon | SN12C renal | NCI-H23 lung | RXF 393 renal | MDA-N | SNB-75 CNS | XF 498 CNS | HL-60(TB) leukemia | SK-MEL-2 melanoma | SF-295 CNS | DU-145 prostate | KM20L2 colon | HCT-116 colon | KM12 colon | K-562 leukemia | M19-MEL melanoma | DMS 273 small cell lung | SF-539 CNS | A498 renal | PC-3 prostate
